Experiments:
[1] = tested on: patients with recurrent or residual cervical carcinoma; settings: cited from earlier work
[2] = tested on: PBMC from normal donors; format: cell-based, human

Row | Substance | responding patients ([1]; 95% interval 10-65%) | safety ([1]; co-emulsified with HPV-derived CTL epitopes) | antigen concentration at which the 10,000 cpm proliferation level was reached [2]
1 | aKXVAAWTLKAAa-NH2 | 33% | favorable safety profile | –
2 | QYIKANSKFIGITE [Epitope 553.01] | – | – | about 10,000 ng/ml

From patent publication US6602510B1, “HLA class I A2 tumor associated antigen peptides and vaccine compositions” (priority 2000, dated 2003)
